The values below are quoted from earlier work in patent US11220528B2, “Compositions and methods for treating pulmonary hypertension” (Marshall University Research Corporation, priority 2017, dated 2022).

The conditions of the series: background statement.

Each structure is given as a SMILES string.

`CCCCC[C@H](O)/C=C/[C@@H]1[C@H]2C/C(=C/CCCC(=O)O)O[C@H]2C[C@H]1O` [Epoprostenol]: the half-life was 3 to 5 min.
